Results as given in patent US5166219A, “Systemic anti-inflammatory treatment” (Lidak Pharmaceuticals, priority 1991, dated 1992).
Like-named read-outs stand apart in the source and are kept apart here.

How the values were obtained:
inflammatory disorders = details: Clark, U.S. Pat. No. 4,670,471; cited from earlier work
growth of plants = details: Ries et al. and others; cited from earlier work
[1] = test system: physical performance of athletes; details: vegetable oil bases, oral ingestion; U.S. Pat. No. 3,031,376; cited from earlier work
[2] = test system: LP-BM 5 MuLV ecotropic virus; experiment: Percent virus inhibition / plaque count of LP-BM 5 MuLV ecotropic virus using XC indicator cells; format: cell-based; details: for inhibition at 0.5 µg/mL / inhibition at 5 µg/mL / inhibition at 50 µg/mL / inhibition at 500 µg/mL: read-out: % decrease
Experimental: A composition a composition consisting essentially of aliphatic alcohols having 22 carbons in the aliphatic chain in micelle suspension, […], was introduced into cultures of LP-BM 5 MuLV ecotropic virus, […], and the percent of virus inhibition, as compared with controls continuing only PBS buffer, indicated by cell-fusion activity and cell plaque count, using XC indicator cells (Virology 42:1136, 1970), was determined.
The effect of the C-20 to C-26 alcohols of this invention on ecotropic virus was further confirmed and compared with AZT.

[3] = test system: collagen-induced arthritis; experiment: Treatment of collagen-induced arthritis (CIA) in DBA/1 mice; format: in vivo
Experimental: DBA/1 mice were injected intradermally at the base of the tail on days zero and 28 with 20 μg chick type II collagen emulsified in CFA. The mammals were followed for clinical signs of arthritis, i.e., joint erythema, edema, and loss of function. The data illustrated in FIG. 1 were derived from a series of 5 independently conducted experiments which show the clinical course of collagen-induced arthritis (CIA) in DBA/1 mice immunized with chick type II collagen/CFA. Male DBA/1 mice were immunized with 20 μg chick type Ii collagen emulsified in CFA on days zero and 28. The mammals were followed for a total of 70 days for clinical signs of arthritis, joint erythema, edema, and loss of function. That data represent the means and standard deviations of incidence of arthritis and spontaneous remission from 5 separate experiments using 10-15 mice per experiment. p As noted by others, Stuart, J. M., Townes, A. S., and Knag, A. H., Ann. Rev. Immunol. […] Histologic analysis (not shown) confirmed extensive mononuclear infiltration and pannus formation as reported by others using similar techniques, Wooley, P. H., Luthra, H. S., Stuart, J. M., and David, C. S., J. Exp. Med. 154:688-700, 1981. […] We used a four point scoring system where zero is a normal limb, 1 being marginal swelling and erythema, 2 being progressively more severe swelling, erythema, and lack of flexibility, and 3 being severe erythema, edema, and often complete fusion of the bone elements and lack of flexibility. […] S., J. Exp. Med. 154:688-700, 1981.
Male DBA/1 (obtained from Jackson Laboratories, Bar Harbor, Me.) were used at 8 to 12 weeks of age. The mice were immunized intradermally at the base of the tail on day zero and again on day 28 with 20 μg chick type II collagen, prepared exactly as described by others, Trentham, D. E., Townes, A. S., and Kang, A. H., J. Exp. Med. 146:857-858, 1977, or obtained commercially (Genzyme, Boston, Ma.), emulsified in complete Freund's adjuvant (Difco, Ann Arbor, Mi.). The mammals were examined visually twice weekly for arthritic signs, swollen and erythremic limbs. Induction of CIA-associated histopathology was assessed by evaluation of paraffin sections of normal limbs, and limbs obtained from mammals with various stages of the disease essentially as described by others, Wooley, P. H., Luthra, H. S., Stuart, J. M., and David, C. S., J. Exp. Med 154:688-700, 1981.
n-Docosanol was suspended in Pluronic F68® (Trademark of BASF Corp; chemical composition, poloxamer 188, a non-ionic detergent block co-polymer of propylene oxide and ethylene oxide) as follows: Pluronic F-68 (mw 8,400; BASF Corp., Parsippany, N.J.) was diluted to 10 mg/ml in warm (37° C.) Dulbecco's high glucose modified Eagle's medium (DMEM; Whittaker Bioproducts, Walkersville, Md.), and the solution then heated to 50° C. n-Docosanol was added at 10 mg/ml to the Pluronic F-68 in DMEM and the solution further heated to 86° C. wile sonicating (Branson 450 sonifier) for 21 minutes at an initial output of 65 watts. The resulting stock suspension contained 10 mg/ml of n-docosanol particles of 0.03-0.3 microns. The corresponding control solution was prepared identically except the n-docosanol was excluded.
Adult DBA/1 mice were immunized with collagen/CFA as described in […], and on day 44 after primary immunization the mammals were given a clinical score and placed in one of three groups. […] One group was treated once daily with 5 mg of n-docosanol as indicated in FIG. 3 (0.5 ml of 10 mg/ml n-docosanol in 10 mg/ml Pluronic F-68), half of which was given intravenously and the other half given subcutaneously. Another group was treated with 5 mg Pluronic F-68 control in a similar manner. The last group was left untreated.
The effects of n-docosanol on CIA in DBA/1 Mice are depicted in FIG. 3. Adult DBA/1 male mice were immunized with collagen/CFA as described in the legend to FIG. 2. […]

In the case of CCCCCCCCCCCCCCCCCCCCCCCCCCCCCCO [1-triacontanol], the anti-inflammatory effectiveness (inflammatory disorders) is given as “the aerosol carrier destroyed the effect of triacontanol”, the plant growth activity (growth of plants) is given as “stimulates the growth of plants” and the “physical performance of athletes” value [1] is given as “improved physical performance of athletes”.

Molecule Cc1cn([C@H]2C[C@H](N=[N+]=[N-])[C@@H](CO)O2)c(=O)[nH]c1=O [AZT, reference compound] has a Plaques/culture ([2]; 0.5 μg/ml, 10^2 input) of 34 ± 3 Plaques/culture, an inhibition at 0.5 µg/mL ([2]; 0.5 μg/ml, 10^2 input) of 69% and a Plaques/culture ([2]; 0.5 μg/ml, 10^3 input) of 657 ± 24 Plaques/culture. The inhibition at 0.5 µg/mL ([2]; 0.5 μg/ml, 10^3 input) was 14%, the Plaques/culture ([2]; 5 μg/ml, 10^2 input) was 43 ± 3 Plaques/culture and the inhibition at 5 µg/mL ([2]; 5 μg/ml, 10^2 input) was 60%. The Plaques/culture ([2]; 5 μg/ml, 10^3 input) was 382 ± 59 Plaques/culture, the inhibition at 5 µg/mL ([2]; 5 μg/ml, 10^3 input) was 50% and the Plaques/culture ([2]; 50 μg/ml, 10^2 input) was 23 ± 5 Plaques/culture. The inhibition at 50 µg/mL ([2]; 50 μg/ml, 10^2 input) was 79%, the Plaques/culture ([2]; 50 μg/ml, 10^3 input) was 131 ± 10 Plaques/culture and the inhibition at 50 µg/mL ([2]; 50 μg/ml, 10^3 input) was 83%. It also gave a Plaques/culture ([2]; 500 μg/ml, 10^2 input) of 5 ± 3 Plaques/culture, an inhibition at 500 µg/mL ([2]; 500 μg/ml, 10^2 input) of 95% and a Plaques/culture ([2]; 500 μg/ml, 10^3 input) of 43 ± 6 Plaques/culture. It also gave an inhibition at 500 µg/mL ([2]; 500 μg/ml, 10^3 input) of 94%.

With CCCCCCCCCCCCCCCCCCCCCCO [C-22 Alcohol, n-docosanol] the Plaques/culture ([2]; 0.5 μg/ml, 10^2 input) was 110 ± 2 Plaques/culture, the inhibition at 0.5 µg/mL ([2]; 0.5 μg/ml, 10^2 input) was 19% and the Plaques/culture ([2]; 0.5 μg/ml, 10^3 input) was 703 ± 88 Plaques/culture. For the same molecule, the inhibition at 0.5 µg/mL ([2]; 0.5 μg/ml, 10^3 input) was 14%, the Plaques/culture ([2]; 5 μg/ml, 10^2 input) was 84 ± 12 Plaques/culture and the inhibition at 5 µg/mL ([2]; 5 μg/ml, 10^2 input) was 36%. The Plaques/culture ([2]; 5 μg/ml, 10^3 input) was 561 ± 50 Plaques/culture, the inhibition at 5 µg/mL ([2]; 5 μg/ml, 10^3 input) was 31% and the Plaques/culture ([2]; 50 μg/ml, 10^2 input) was 72 ± 24 Plaques/culture. The inhibition at 50 µg/mL ([2]; 50 μg/ml, 10^2 input) was 45%, the Plaques/culture ([2]; 50 μg/ml, 10^3 input) was 562 ± 11 Plaques/culture and the inhibition at 50 µg/mL ([2]; 50 μg/ml, 10^3 input) was 31%. For the same molecule, the Plaques/culture ([2]; 500 μg/ml, 10^2 input) was 13 ± 2 Plaques/culture, the inhibition at 500 µg/mL ([2]; 500 μg/ml, 10^2 input) was 90% and the Plaques/culture ([2]; 500 μg/ml, 10^3 input) was 401 ± 5 Plaques/culture. For the same molecule, the inhibition at 500 µg/mL ([2]; 500 μg/ml, 10^3 input) was 51%, the inhibition at 0.06 µg/mL ([2]; C-22 alcohol 0.06 μg/ml, 100 PFU/ml (10^2 input)) was 7% and the inhibition at 0.6 µg/mL ([2]; C-22 alcohol 0.6 μg/ml, 100 PFU/ml (10^2 input)) was 22%. For the same molecule, the inhibition at 6 µg/mL ([2]; C-22 alcohol 6 μg/ml, 100 PFU/ml (10^2 input)) was 40%, the inhibition at 60 µg/mL ([2]; C-22 alcohol 60 μg/ml, 100 PFU/ml (10^2 input)) was 89% and the mean clinical score ([3]; 24 hours after the first treatment, vs untreated or control-treated, 5 mg once daily, half i.v., half s.c.) was “significant decrease in mean clinical score”. The “P value, decrease in mean clinical score vs untreated” value ([3]; after further regimen of 3 treatments) was 0.001, the mean clinical score ([3]; after further regimen of 3 treatments (days 50-52)) was “another significant decrease in mean clinical score” and the “P value, decrease in mean clinical score vs control-treated” value ([3]; after further regimen of 3 treatments, Pluronic F-68 control) was 0.03. The “day of first complete clinical remission” value ([3]; after primary immunization (3 days after initial treatment)) was 47 days, the clinically normal mammals ([3]; by day 55 after primary immunization) was 100% and the “lag of remission in untreated or control-treated groups behind n-docosanol-treated group” value ([3]; complete clinical remission) was 8 to 9 days. For the same molecule, the mean clinical score ([3]; day 49, 48 hours after the last injection) was “a rise in mean clinical score” and the “occurrence of remission from CIA” value ([3]; panel B of FIG. 3) was “hastened the occurrence of remission from CIA”.

For CCCCCCCCCCCCCCCCCCCCCCCCCCCCCCCCO [C-32], the plant growth activity (growth of plants) is given as “do not possess such physiological activity, or at least have very much less physiological activity in plant growth”.

For CCCCCCCCCCCCCCCCCCCCCCCCCCO [hexacosanol], the “physical performance of athletes” value [1] is listed as “improved physical performance of athletes”.

In the case of CCCCCCCCCCCCCCCCCCCCCCCCCCCCO [octacosanol], the plant growth activity (growth of plants) is given as “do not possess such physiological activity, or at least have very much less physiological activity in plant growth” and the “physical performance of athletes” value [1] is given as “improved physical performance of athletes”.

For CCCCCCCCCCCCCCCCCCCCCCCCO [tetracosanol], the “physical performance of athletes” value [1] is listed as “improved physical performance of athletes”.
